Data published in US6855507B2, “Method of screening for pharmaceuticals by detecting cross talk between intracellular signals and intranuclear receptors” (Chugai Seiyaku Kabushiki Kaisha, priority 1998, dated 2005).

Test system: VDR and Smad3
Assay: GST-pull down analysis of VDR and Smad3 interaction (cell-free)
Format: binding
Conditions: FIG. 5
Method: GST fused Smad3 or VDR (full length peptide 1-424, partial peptides: amino acid sequence 115-424, 115-357, 115-300 and others, see FIG. 4) fused proteins (GST-Smad3 or GST-VDR) were expressed by using E.coli, and were captured on beads with glutatione-Sepharose bead (Pharmacia) to accomplish affinity purification. On the other hand, ^35S-methionine-labeled Smad3 and VDR were prepared in cell-free system by using reticulocyte lysate translation system (Promega). GST-Smad3 or GST-VDR fixed on beads described above was incubated with ^35S-methionine labeled VRD or Smad3. By using polyacrylamide gel electrophoresis, ^35S-methionine labeled VDR or Smad3 were analyzed.

SMILES: C=C1/C(=C\C=C2/CCC[C@]3(C)[C@@H]([C@H](C)CCCC(C)(C)O)CC[C@@H]23)C[C@@H](O)C[C@@H]1O [1,25(OH)2VD3]
- binding of full length VDR to Smad3 in the presence of ligand (1 nM): slightly bound
- ligand requirement of binding of VDR partial peptides 115-357 and 115-300 to Smad3: did not require
